Common to all, as to type: in vivo
Assay [1] deals with T. mentagrophytes. Kind of assay: Hair root invasion test (mycological evaluation), T. mentagrophytes dermatophytosis guinea pig model, different doses once weekly, Example 2. As to conditions: evaluated study day 12, relative to vehicle control. The procedure:
(§1) Procedures for animal care and use, preparation of standard inoculum, and infection of the animals were carried out following the same steps as described in Example 1.
(§2) Infected guinea pigs were randomized into the following (1)-(5) groups (10 per group) (see Table 4): (1) a vehicle control (water+mannitol); (2) terbinafine 10 mg/kg PO days 1 and 8, as a positive control; (3) CD101 10 mg/kg SQ days 1 and 8; (4) CD101 20 mg/kg SQ days 1 and 8; and (5) CD101 40 mg/kg SQ days 1 and 8.
(§3) Animals were treated with CD101 SQ or PO (for terbinafine) once a week on days 1 and 8.
(§4) Study Day 1: Infect the animals with T. mentagrophytes and begin treatments.
(§5) Study Day 8: Last treatment.
(§6) Study Day 12: Clinical evaluation of the four quadrants in the marked area is done. Hair samples were obtained from each quadrant. Hairs (10 per quadrant) were planted in Potato Dextrose Agar, and incubated for 48 h for mycological evaluation. Procedures for clinical and mycological evaluations are described below.
(§7) The compounds was administered SQ or PO (0.3 mL/kg […]).
Hair samples were removed with sterile forceps from four quadrants. Ten hair samples from each quadrant were inoculated onto the corresponding quadrant on the Potato Dextrose agar plate and incubated at 30° C. for 2 days. The fungal growth at the hair root was examined under a stereomicroscope. The effectiveness of a compound in reducing the number of mycologically positive hair sample per treated group was expressed as percentage relative to the untreated control group of animals using the following formula:
where T=Positive hair in the test group, K=Positive hair in the Untreated control.

Assay [2] deals with T. mentagrophytes. Kind of assay: Clinical evaluation of infected skin, T. mentagrophytes dermatophytosis guinea pig model, different doses once weekly, Example 2. As to conditions: evaluated study day 12, relative to vehicle control. On the procedure:
as §1, §2, §3, §4, §5, §6, §7
Clinical assessment of local changes of the infected skin area was scored as follows:
1=Few slightly erythematous places on the skin
2=Well-defined redness, swelling with bristling hairs.
3=Large areas or marked redness incrustation, scaling, bald patches, ulcerated in places.
4=Partial damage to the integument and loss of hair
5=Extensive damage to the integument and complete loss of hair at the site of infection.
Any other local skin reactions were noted. The assessment of clinical evaluation in the change of scores per treatment group was expressed as percentage relative to the untreated control group of animals using the following formula:
where T=Scores in the test group. K=Scores in the untreated control

Assay [3] concerns T. mentagrophytes ATCC 24953. Kind of assay: Hair root invasion test (mycological evaluation), T. mentagrophytes dermatophytosis guinea pig model, Example 1. As to conditions: evaluated study day 10, relative to vehicle control. On the procedure: A request was made to the Animal Resource Center (ARC) at Case Western Reserve University to order the required number of male albino Harlan-Sprague-Dawley Guinea-Pigs (San Diego, Calif.) with a body weight of 450-500 g. Animals were allowed to acclimate for a minimum of 5 days prior to use. Environmental controls for the animal room were set to maintain a temperature of 16 to 22° C., a relative humidity of 30-70%, and a 12:12 light-dark cycle.
T. mentagrophytes ATCC 24953 was used as the infecting fungus. This strain was selected because it can cause skin infection and results in inflammatory reaction.
T. mentagrophytes (from frozen stock) was sub-cultured on Potato Dextrose Agar plates and incubated at 30° C. for 5-7 days. The colonies were scraped from the plates using sterile normal saline (NaCl 0.85%) solution. After washing for three times with sterile saline the conidia were re-suspended in the same solution. Ten-fold dilutions of conidia suspension were prepared and counted using a hemacytometer. Working suspension of conidia was prepared at a final concentration of 1×10^7 Colony Forming Units (CFUs)/100 μL in normal saline.
Each animal was anesthetized with a cocktail of xylazine and ketamine: 0.2 mL intramuscularly. Using an electric shaver, hair was clipped on left side of the guinea pig back. A closer shave was done with a disposable razor. Using a stencil, a square of 2.5 cm×2.5 cm was marked. The marked skin area was abraded with sterile fine grit sandpaper. A cell suspension containing 1×10^7 conidia in 100 μL was applied and rubbed thoroughly on the abraded skin.
Beginning two hours post inoculation, animals were treated subcutaneously (SQ) for CD101 and orally (PO) terbinafine once daily for a period of nine days, or once a week on days 1 and 8.
Study Day 1: Infected the animals with T. mentagrophytes and begin treatments.
Study Day 9 (treatment day 9): End treatments.
Study Day 10: Clinical evaluation of the four quadrants in the marked area was done. Hair samples were obtained from each quadrant (10 per quadrant). Hairs were planted in Potato Dextrose Agar, and incubated for 48 h for mycological evaluation. Procedures for clinical and mycological evaluations are described below.
CD101 was administered SQ in 0.3 mL, while the terbinafine was given orally in 0.3 mL. Vehicle treated group was also included.
Hair samples were removed with a sterile forceps from four quadrants. Ten hair samples from each quadrant were inoculated onto the corresponding quadrant on the Potato Dextrose agar plate and incubated at 30° C. for 2 days. The fungal growth at the hair root was examined under a stereomicroscope. The effectiveness of a compound in reducing the number of mycologically positive hair sample per treated group is expressed as percentage relative to the vehicle control group of animals using the following formula:
where, T=Positive hair in the test group, K=Positive hair in the Untreated control.

Starred links: 1 amine or outer side, 2 acyl side, 3 side chain; linkers in the order of their positions; H or OH if unused. Positions of bridges follow the written chain, without caps; N, C: chain ends. Non-standard residues stand in square brackets, D forms with d. Residues, ends and D or L forms follow the SMILES beside them. *: point of attachment. Orn(4R-OH,5R-OCH2CH2NMe3+) = C[N+](C)(C)CCO[C@@H](N[*:3])[C@H](O)C[C@H](N[*:1])C(=O)[*:2]; pTerphenylCO(4''-OnC5H11) = CCCCCOc1ccc(-c2ccc(-c3ccc(C(=O)*)cc3)cc2)cc1; hTyr(3S-OH,4S-OH) = N[C@H](C(=O)O)[C@H](O)[C@@H](O)c1ccc(O)cc1; Pro(3S-OH,4S-Me) = C[C@H]1CN[C@H](C(=O)O)[C@H]1O; Hyp = O=C(O)[C@@H]1C[C@@H](O)CN1

Turning to `CCCCCOc1ccc(-c2ccc(-c3ccc(C(=O)N[C@H]4C[C@@H](O)[C@@H](OCC[N+](C)(C)C)NC(=O)[C@@H]5[C@@H](O)[C@@H](C)CN5C(=O)[C@H]([C@@H](C)O)NC(=O)[C@H]([C@H](O)[C@@H](O)c5ccc(O)cc5)NC(=O)[C@@H]5C[C@@H](O)CN5C(=O)[C@H]([C@@H](C)O)NC4=O)cc3)cc2)cc1` [CD101] ({pTerphenylCO(4''-OnC5H11)}-[Orn(4R-OH,5R-OCH2CH2NMe3+)]T[Hyp][hTyr(3S-OH,4S-OH)]T[Pro(3S-OH,4S-Me)]; lactam 1-C), the “Percent Efficacy Mycological” value in the assay with T. mentagrophytes [1] (10 mg/kg SQ days 1 and 8) came to 80.9%; in the assay on T. mentagrophytes [1] (20 mg/kg SQ days 1 and 8) it was 82.9%; in the assay with T. mentagrophytes [1] (40 mg/kg SQ days 1 and 8), 98.5%; in assay [3] (35 mg/kg SQ daily for nine days), 88.0%; in assay [3] (35 mg/kg SQ once a week (days 1 and 8)) it was 85.5%. Besides, the “Percent Efficacy Clinical” value with T. mentagrophytes [2] (10 mg/kg SQ days 1 and 8) is listed as 90.5%; with T. mentagrophytes [2] (20 mg/kg SQ days 1 and 8), 94.2%; with T. mentagrophytes [2] (40 mg/kg SQ days 1 and 8) it was 98.4%.
